Eight molecules from PubChem BioAssay AID256 (DTP/NCI, 2004) can be followed below.

Molecules are shown by their SMILES. Values joined by “and” are separate entries in the source; they are usually repeats but may differ in a detail not shown here. Identical values can stand only once. Inconclusive results and toxic doses are left out.

The assay has as its system CD2F1 mice, L1210 leukemia ip, survival T/C. The assay is described as follows: NCI In Vivo Anticancer Drug Screen. Data for tumor model L1210 Leukemia (intraperitoneal) in CD2F1 (CDF1) mice. The settings on record: endpoint: mean survival time, higher = longer survival. In short, it runs like this:
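Ratio T/C, where T is the treated-group value and C the vehicle-dosed control value, from mice implanted with a transplantable tumor.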

Where [1] appears, read: dose: 100.0 mg/kg/injection, schedule: Q04DX003 (ip), vehicle: saline with Tween-80.

Turning to `O=C(CCBr)N1CCN(C(=O)CCBr)CC1`, the T/C is 100 % of control (dose: 4.0 mg/kg/injection, schedule: Q03HX016 (ip), vehicle: saline); 100 % of control (dose: 4.0 mg/kg/injection, schedule: Q03HX024 (ip), vehicle: saline); 101 % of control (dose: 8.0 mg/kg/injection, schedule: Q03HX016 (ip), vehicle: saline); 93 % of control (dose: 8.0 mg/kg/injection, schedule: Q03HX016 (oral), vehicle: saline); 110 % of control (dose: 8.0 mg/kg/injection, schedule: Q03HX024 (ip), vehicle: saline); 119 % of control (dose: 8.0 mg/kg/injection, schedule: Q03HX024 (oral), vehicle: saline). For the same molecule, the T/C is, setting by setting: (dose: 16.0 mg/kg/injection, schedule: Q03HX008 (ip), vehicle: saline) 120 % of control; (dose: 16.0 mg/kg/injection, schedule: Q03HX008 (oral), vehicle: saline) 124 % of control; (dose: 16.0 mg/kg/injection, schedule: Q03HX016 (ip), vehicle: saline) 117 % of control; (dose: 16.0 mg/kg/injection, schedule: Q03HX016 (oral), vehicle: saline) 100 % of control; (dose: 16.0 mg/kg/injection, schedule: Q03HX024 (ip), vehicle: saline) 172 % of control; (dose: 16.0 mg/kg/injection, schedule: Q03HX024 (oral), vehicle: saline) 123 % of control. Also, the T/C is 124 % of control (dose: 25.0 mg/kg/injection, schedule: Q01DX009 (ip), vehicle: saline); 115 % of control (dose: 25.0 mg/kg/injection, schedule: Q03DX003 (ip), vehicle: saline); 108 % of control (dose: 25.0 mg/kg/injection, schedule: Q04DX003 (ip), vehicle: saline); 161 % of control (dose: 32.0 mg/kg/injection, schedule: Q01DX009 (ip), vehicle: saline); 150 % of control (dose: 32.0 mg/kg/injection, schedule: Q01DX009 (oral), vehicle: saline); 160 % of control (dose: 32.0 mg/kg/injection, schedule: Q03HX008 (ip), vehicle: saline). Further, the T/C runs as follows: (dose: 32.0 mg/kg/injection, schedule: Q03HX008 (oral), vehicle: saline) 151 % of control; (dose: 32.0 mg/kg/injection, schedule: Q03HX016 (ip), vehicle: saline) 207 % of control; (dose: 32.0 mg/kg/injection, schedule: Q03HX016 (oral), vehicle: saline) 162 % of control; (dose: 32.0 mg/kg/injection, schedule: Q03HX024 (ip), vehicle: saline) 101 % of control; (dose: 32.0 mg/kg/injection, schedule: Q03HX024 (oral), vehicle: saline) 94 % of control; (dose: 32.0 mg/kg/injection, schedule: Q04DX003 (ip), vehicle: saline) 118 % of control. Besides, the T/C by setting is: (dose: 32.0 mg/kg/injection, schedule: Q08DX002 (ip), vehicle: saline) 98 % of control; (dose: 50.0 mg/kg/injection, schedule: Q03DX003 (ip), vehicle: saline) 124 % of control; (dose: 50.0 mg/kg/injection, schedule: Q04DX003 (ip), vehicle: saline) 123 % of control; (dose: 64.0 mg/kg/injection, schedule: Q01DX009 (ip), vehicle: saline) 156 % of control; (dose: 64.0 mg/kg/injection, schedule: Q01DX009 (oral), vehicle: saline) 122 % of control; (dose: 64.0 mg/kg/injection, schedule: Q04DX003 (ip), vehicle: saline) 162 % of control. The T/C by setting is: (dose: 64.0 mg/kg/injection, schedule: Q08DX002 (ip), vehicle: saline) 115 % of control; (dose: 64.0 mg/kg/injection, schedule: Q08DX002 (oral), vehicle: saline) 109 % of control; (dose: 100.0 mg/kg/injection, schedule: Q01DX007 (ip), vehicle: saline) 120 % of control; (dose: 100.0 mg/kg/injection, schedule: Q03DX003 (ip), vehicle: saline) 167 % of control; (dose: 128.0 mg/kg/injection, schedule: Q01DX001 (oral), vehicle: saline) 150 % of control; (dose: 128.0 mg/kg/injection, schedule: Q01DX009 (oral), vehicle: saline) 105 % of control. Moreover, the T/C is 176 % of control (dose: 128.0 mg/kg/injection, schedule: Q04DX003 (ip), vehicle: saline); 157 % of control (dose: 128.0 mg/kg/injection, schedule: Q04DX003 (oral), vehicle: saline); 167 % of control (dose: 128.0 mg/kg/injection, schedule: Q08DX002 (ip), vehicle: saline); 157 % of control (dose: 256.0 mg/kg/injection, schedule: Q01DX001 (ip), vehicle: saline); 88 % of control (dose: 256.0 mg/kg/injection, schedule: Q01DX009 (oral), vehicle: saline); 194 % of control (dose: 256.0 mg/kg/injection, schedule: Q08DX002 (ip), vehicle: saline). The T/C is 156 % of control (dose: 256.0 mg/kg/injection, schedule: Q08DX002 (oral), vehicle: saline) and 156 % of control (dose: 512.0 mg/kg/injection, schedule: Q08DX002 (oral), vehicle: saline).

Take `Cc1ccc(S(=O)(=O)OCC2C3CCC(C3)C2COS(=O)(=O)c2ccc(C)cc2)cc1` (stereo unspecified): the T/C (dose: 25.0 mg/kg/injection, schedule: Q04DX002 (ip), vehicle: saline with Tween-80) was 95 % of control; the T/C (dose: 50.0 mg/kg/injection, schedule: Q04DX002 (ip), vehicle: saline with Tween-80) is 95 % of control; the T/C (dose: 100.0 mg/kg/injection, schedule: Q04DX002 (ip), vehicle: saline with Tween-80) is 95 % of control and 98 % of control.

Take `O=C1c2ccccc2C2c3[nH]c4ccccc4c3CCN12` (stereo unspecified): the T/C reads like this: (dose: 100.0 mg/kg/injection, schedule: Q01DX009 (ip), vehicle: saline sonified) 97 % of control; under setting [1], 87 % of control; (dose: 200.0 mg/kg/injection, schedule: Q01DX009 (ip), vehicle: saline sonified) 96 % of control; (dose: 200.0 mg/kg/injection, schedule: Q04DX003 (ip), vehicle: saline with Tween-80) 95 % of control; (dose: 400.0 mg/kg/injection, schedule: Q01DX009 (ip), vehicle: saline sonified) 97 % of control; (dose: 400.0 mg/kg/injection, schedule: Q04DX003 (ip), vehicle: saline with Tween-80) 93 % of control.

Regarding `COC(=O)C1C(O)C(C)C(O)C(C)(O)C=C(C)C2=C3C(=C(C)C(=O)c4c(O)c(c(C)c(OC(C)=O)c43)NC(=O)C(C)=C/C=C\C(C)(O)C(O)C(C)C1O)OCO2` (stereo unspecified), the T/C by setting is: (dose: 12.5 mg/kg/injection, schedule: Q04DX003 (ip), vehicle: saline with Tween-80) 96 % of control; (dose: 25.0 mg/kg/injection, schedule: Q04DX003 (ip), vehicle: saline with Tween-80) 101 % of control; (dose: 50.0 mg/kg/injection, schedule: Q04DX003 (ip), vehicle: saline with Tween-80) 101 % of control; under setting [1], 111 % of control.

On to `Cc1nc2cc(Cl)cc([N+](=O)[O-])c2nc1C`, for which the T/C (dose: 100.0 mg/kg/injection, schedule: Q01DX001 (ip), vehicle: other) is 103 % of control; the T/C (dose: 200.0 mg/kg/injection, schedule: Q01DX001 (ip), vehicle: other) was 97 % of control; the T/C (dose: 400.0 mg/kg/injection, schedule: Q01DX001 (ip), vehicle: other) was 97 % of control.

Regarding `O/N=C/c1cccc[n+]1Cc1ccccc1`, the T/C (dose: 1.56 mg/kg/injection, schedule: Q01DX009 (ip), vehicle: Klucel (hydroxypropylcellulose) (HPC)) was 107 % of control; the T/C (dose: 3.13 mg/kg/injection, schedule: Q01DX009 (ip), vehicle: Klucel (hydroxypropylcellulose) (HPC)) is 106 % of control; the T/C (dose: 6.25 mg/kg/injection, schedule: Q01DX009 (ip), vehicle: Klucel (hydroxypropylcellulose) (HPC)) is 102 % of control; the T/C (dose: 12.5 mg/kg/injection, schedule: Q01DX009 (ip), vehicle: Klucel (hydroxypropylcellulose) (HPC)) is 106 % of control; the T/C (dose: 25.0 mg/kg/injection, schedule: Q01DX009 (ip), vehicle: Klucel (hydroxypropylcellulose) (HPC)) is 95 % of control; the T/C (dose: 25.0 mg/kg/injection, schedule: Q01DX009 (ip), vehicle: water) is 100 % of control.

For `COCC(=O)C(C(C)=O)C(c1ccc(OC)cc1)C(C(C)=O)C(=O)COC` (stereo unspecified), the T/C reads like this: (dose: 100.0 mg/kg/injection, schedule: Q01DX001 (ip), vehicle: saline with Tween-80) 101 % of control; (dose: 200.0 mg/kg/injection, schedule: Q01DX001 (ip), vehicle: saline with Tween-80) 98 % of control; (dose: 400.0 mg/kg/injection, schedule: Q01DX001 (ip), vehicle: saline with Tween-80) 95 % of control.

On to `CCN(CC)CCOCCO`, for which the T/C is 102 % of control (dose: 100.0 mg/kg/injection, schedule: Q01DX009 (ip), vehicle: saline) and 96 % of control (dose: 200.0 mg/kg/injection, schedule: Q01DX009 (ip), vehicle: saline).
